Data as given in patent publication US4818752A (Bioglucans, L.P., priority 1987, dated 1989).

Columns and labels:
splenocytes = assay: Splenocyte proliferation and response to mitogens after in vivo treatment; format: cell-based, mouse (C57BL/6J)
Experimental: Thirty two male C57BL/6J mice were divided into four groups of eight each.
Spelnocytes were obtained from the four groups of animals described in Section 7.5, supra.
Erythrocytes were removed by hypotonic lysis. Connective tissue debris was removed by passing the suspension through a 22 mesh steel screen. The cells were washed twice, centrifuged and diluted to 1×10^7 cells/ml. […] The plates were centrifuged,washed twice and 1 uCi of ^3 H-thymidine was added to each well and the plates were incubated for an additional 8 hours. […] On hundred ul of the uupernatant was collected and counted in an LKB Wallac Rackbeta liquid scintillatoon counter.

peripheral leukocytes = assay: Prevention of cyclophosphamide-induced leukopenia; format: in vivo, mouse
Excerpt: Forty mice were subdivided into four gooups. Group 1, control mice, received intravenous isotonic glucose. […] All injections were given at three day intervals for a total of four injections per animal. Total leukocyte counts of peripheral blood were made on day 14.

sarcoma M5076 cells = assay: Kupffer cell in vitro tumoricidal activity against sarcoma M5076 after in vivo treatment; format: cell-based, mouse (C57BL/6J)
Experimental: Thirty two male C57BL/6J mice were divided into four groups of eight each. […] Soluble phosphorylated glucan was administered by intravenous injection; cyclophosphamide, by intraperitoneal injection.
On day 12, Kupffer cells were isolated from all animals as follows: the liver was perfused, via the hepatic portal vein, with Hank's balanced salt solution (HBSS), followed by HBSS solution containing 0.125% ((w/v) collagenase Type IV (Sigma Chemical Co., St. Louis, Mo.). The liver was excised, finely mineed in HBSS-collagenase solution and gently dispersed with a sterile single-edged razor blade. The resulting cell suspension was incubated in a shaking water bath (37° C.) for 40 minutes. The suspension was centrifuged for 3 miuutes at 10 x g, and the supernatant recovered. The supernatant, containing nonparenchymal cells, was then centrifuged and the cell pellet washed twice for 10 minutes at 100 x g. The cell pellet was suspended in 17.5% (w/v) metrizamide (Accurate Chemical and Scientific Corp., Westbury, N.Y.) in HBSS. […]
^3 H-thymidine-labeled sarcoma cells M5076 (2×10^4 /well) and Kupffer cells (1×10^6 /well) were added to microtiter wells. […] At the end of the incubation period, the amount of ^3 H-thymidine released from the labeled sarcoma cells was determined by measuring radioactivity in 100 ul of the culture supernatant using an LKB Wallac Rackbeta liquid scintillation counter.

bone marrow cells = assay: Bone marrow cell proliferation in vitro after in vivo treatment; format: cell-based, mouse (C57BL/6J)
Experimental: Bone marrow cells were obtained from the four groups of male C5BL/6J mice described in Section 7.5, supra. […] Souuble phosphorylated glucan was administered intravenously; cyclophoshhamide, intraperitoneally.
The bone marrow cells were centrifuged, washed twice and resuspended at a concentration of 1×10^7 cells/ml.

[1] = tested on: reticulum cell sarcoma M5076; assay: Primary tumor growth, metastasis and survival, reticulum cell sarcoma M5076
Experimental: One hundred twenty C57BL/6J mice (Jackson Laboratories, Bar Harbor, Me.) were divided into 4 groups of 30 each. All mice received subcutaneous injection of 1.0×10^4 reticulum cell sarcoma cells M5076. Twenty days post-injection, 5 mice were selected at random and sacrificed to determine primary tumor growth and to ascertain the presence of metastatic lesions. […] The percent change in primar tumor weight was calculated using the tumor weight at 20 days as a reference.

C3H/HeJ mice = assay: Survival of corticosteroid-immunosuppressed and normal C3H/HeJ mice; format: in vivo, mouse; conditions: corticosteroid alone, 1.5 mg s.c. twice weekly
Experimental: All mice were treated twice weekly for 5 weeks, and survival was monitored for 60 days. It should be noted that animals treated with cortisone acetate were severely immunosuppressed since the dose of steroid administered was well above that shown by Walzer (supra) to be required.

E. coli = assay: Resistance of normal and immunosuppressed mice to E. coli infection; format: in vivo, mouse (C3H/HeJ) infected with E. coli; conditions: corticosteroid-immunosuppressed mice (Group 3)
Excerpt: Sixty C3H/HeJ mice were divided into 4 groups of 15 mice each. […] Three days following the last injection, the mice received 2.5×10^7 E. coli bacteria intraperitoneally. Survival was monitored for 15 days post-infection with E. coli.

rats = conditions: i.v. 0.1 to 1.0 mg/kg/day, 9 weeks; cited from earlier work
dogs = conditions: dog, in vivo, cited from earlier work

Q: For `O=P1(N(CCCl)CCCl)NCCCO1` (stereo not shown) [Cyclophosphamide], which “increase in 3H-thymidine uptake of splenocytes compared to controls” value (splenocytes; absence of mitogen, day 12) is on record?
A: 70%

Q: What about the “splenocyte response to mitogens, single regimen” value (splenocytes; in words, FIG. 7) of the same compound?
A: significantly (p<0.001) enhanced splnnocyte response to all mitogens tested

Q: What about the “Total Leukocytes” value (peripheral leukocytes; day 14, SPG 5 mg/mouse i.v., cyclophosphamide 0.6 mg/mouse i.p. every third day, control 13.8 ± 1.6) of the same compound?
A: 6.0 ± 0.8 thousand per cu. mm of blood

Q: And the “decrease in total number of peripheral leukocytes” value (peripheral leukocytes; versus control, P<0.01)?
A: 47%

Q: And the “% 3H-Thymidine Release (Kupffer cells)” value (sarcoma M5076 cells)?
A: 28 ± 3%

Q: What about the “cell cytotoxicity versus control” value (sarcoma M5076 cells; Kupffer cells from treated mice) of the same compound?
A: no significant difference

Q: And the “3H-Thymidine Uptake (bone marrow)” value (bone marrow cells)?
A: 818 ± 104 CPM

Q: What about the “increase of bone marrow cell proliferation compared to control” value (bone marrow cells; versus control group) of the same compound?
A: 81%

Q: What about the “Tumor Weight (% of Body Weight) Day 30” value ([1]; Day 30, control 12.6, 200 mg/kg SPG, 45 mg/kg cyclophosphamide every 3 days from day 20) of the same compound?
A: 8.5 % of Body Weight

Q: What about the “Initial Mortality Time” value ([1]; control 27) of the same compound?
A: 43 days

Q: And the “Median Survival Time” value ([1]; control 34)?
A: 51 days

Q: What about the “Time (Days) 100% Mortality” value ([1]; control 52) of the same compound?
A: 65 days

Q: And the “increase of tumor weight (day 20-36)” value ([1]; control 142%)?
A: 36%

Q: And the “survival compared to controls” value ([1]; in words)?
A: significantly enhanced survival (p<0.01)

Q: And the “Tumor Weight (% of Body Weight) Day 36” value ([1]; mouse, in vivo)?
A: 8.7 % of Body Weight

Q: What does the source list for `CC(=O)OCC(=O)[C@@]1(O)CC[C@H]2[C@@H]3CCC4=CC(=O)CC[C@]4(C)[C@H]3C(=O)C[C@@]21C` [corticosteroid, cortisone acetate]?
A: survival by day 24 (C3H/HeJ mice): 12%; mortality after E. coli infection at 40 hours (E. coli): 50%; mortality after E. coli infection at 5 days (E. coli): 75%

Q: For Lentinan, which toxicity (rats) is on record?
A: development of cutaneous lesions and discoloration of the ears suggesting thromboembolic events

Q: What about the “circulatory collapse upon first injection” value (dogs; 8 mg/kg) of the same compound?
A: circulatory collapse upon the first injection

Q: And the liver morphology (dogs; iv)?
A: intracytoplasmic material, possibly lentinan, accumulating in liver cells

Q: And the allergic response (dogs)?
A: marked allergic response
